# Measurements taken from patent US7038077B2, “Prodrugs of excitatory amino acids” (Eli Lilly and Company, priority 2001, dated 2006).
row,melting point,SMILES
1,> 175 °C (dec.),Cl.N[C@@]1(C(=O)OCc2ccccc2C(F)(F)F)CC[C@H]2[C@H](C(=O)O)[C@H]21
2,135 to 137 °C,"Cl.N[C@@]1(C(=O)OCc2ccc(Cl)cc2Cl)CC[C@H]2[C@H](C(=O)O)[C@H]21 [Example 29, (1S,2S,5R,6S)-2-Amino-bicyclo[3.1.0]hexane-2,6-dicarboxylic acid 2-(2′,4′-dichloro)benzyl ester hydrochloride]"
3,> 220 °C (dec.),"Cl.N[C@@]1(C(=O)OCc2ccccc2F)CC[C@H]2[C@H](C(=O)O)[C@H]21 [Example 31, (1S,2S,5R,6S)-2-Amino-bicyclo[3.1.0]hexane-2,6-dicarboxylic acid 2-(2′-fluoro)benzyl ester hydrochloride]"
4,173 to 175 °C,"Cl.N[C@@]1(C(=O)OCc2cc(Cl)ccc2Cl)CC[C@H]2[C@H](C(=O)O)[C@H]21 [Example 33, (1S,2S,5R,6S)-2-Amino-bicyclo[3.1.0]hexane-2,6-dicarboxylic acid 2-(2′,5′-dichloro)benzyl ester hydrochloride]"
5,190 to 191 °C,"Cl.N[C@@]1(C(=O)OCc2ccccc2Br)CC[C@H]2[C@H](C(=O)O)[C@H]21 [Example 34, (1S,2S,5R,6S)-2-Amino-bicyclo[3.1.0]hexane-2,6-dicarboxylic acid 2-(2′-bromo)benzyl ester hydrochloride]"
6,98 to 99 °C,"Cl.N[C@@]1(C(=O)OCc2cc(F)cc(F)c2)CC[C@H]2[C@H](C(=O)O)[C@H]21 [Example 35, (1S,2S,5R,6S)-2-Amino-bicyclo[3.1.0]hexane-2,6-dicarboxylic acid 2-(3′,5′-difluoro)benzyl ester hydrochloride]"
7,70 °C (dec.),"Cc1ccc(C)c(COC(=O)[C@]2(N)CC[C@H]3[C@H](C(=O)O)[C@H]32)c1.Cl [Example 41, (1S,2S,5R,6S)-2-Amino-bicyclo[3.1.0]hexane-2,6-dicarboxylic acid 2-(2′,5′-dimethyl)benzyl ester hydrochloride]"
8,195 °C (dec.),"COc1ccccc1COC(=O)[C@]1(N)CC[C@H]2[C@H](C(=O)O)[C@H]21 [Example 48, (1S,2S,5R,6S)-2-Amino-bicyclo[3.1.0]hexane-2,6-dicarboxylic acid 2-(2′-methoxy)benzyl ester]"
9,225 °C (dec.),"N[C@@]1(C(=O)OCc2cccc(F)c2)CC[C@H]2[C@H](C(=O)O)[C@H]21 [Example 54, (1S,2S,5R,6S)-2-Amino-bicyclo[3.1.0]hexane-2,6-dicarboxylic acid 2-(3′-fluoro)benzyl ester]"
